Assay results taken from ChEMBL document CHEMBL5131541, “Structural Feature Analyzation Strategies toward Discovery of Orally Bioavailable PROTACs of Bruton's Tyrosine Kinase for the Treatment of Lymphoma” (J Med Chem, 2022).
Active and inactive are the calls of the source. The rule behind the calls is not given here.

Legend:
[1] = molecular target: T1, Tyrosine-protein kinase BTK (Homo sapiens, UniProt Q06187); experiment: Induction of BTK degradation in human MINO cells incubated for 24 hrs by Western blot; format: cell-based; conditions: dose 1-1000 nM, DDE = dose-dependent effect
[2] = molecular target: T1, Tyrosine-protein kinase BTK; experiment: Induction of BTK degradation in human MINO cells at 1000 nM incubated for 24 hrs by Western blot; format: cell-based
[3] = molecular target: T1, Tyrosine-protein kinase BTK; experiment: Inhibition of BTK (unknown origin)
[4] = molecular target: T1, Tyrosine-protein kinase BTK; experiment: Induction of BTK degradation in human MINO cells at 0.1 to 1000 nM incubated for 2 hrs by Western blot analysis; format: cell-based; conditions: dose 0.1-1000 nM
[5] = molecular target: Proto-oncogene tyrosine-protein kinase Src (Homo sapiens) (UniProt P12931); experiment: Induction of c-SRC tyrosine kinase degradation in human MINO cells at 100 nM measured after 8 hrs by proteomic analysis; format: cell-based
[6] = Dose normalized AUC (0 to t) in Sprague-Dawley rat at 5 to 10 mg/kg, po administered as cassette dose measured upto 24 hrs by LC-MS analysis; format: ADME, organism-based; conditions: in vivo, dose 5-10 mg/kg
[7] = Induction of leukocyte c-SRC kinase degradation in human MINO cells at 100 nM measured after 8 hrs by proteomic analysis
[8] = Oral bioavailability in ICR mouse at 100 mg/kg measured upto 48 hrs by LC/MS analysis; format: ADME, organism-based; conditions: in vivo
[9] = molecular target: T1, Tyrosine-protein kinase BTK; experiment: Induction of BTK degradation in human MINO cells assessed as reduction in NFkappaB phosphorylation incubated for 24 hrs by Western blot analysis; format: cell-based; conditions: dose 1-200 nM, DDE = dose-dependent effect
[10] = molecular target: T1, Tyrosine-protein kinase BTK; experiment: Induction of BTK degradation in human MINO cells assessed as maximum degradation incubated for 24 hrs by Western blot based densitometry analysis relative to control; format: cell-based
[11] = test system: Tyrosine-protein kinase BTK (Homo sapiens), Q06187 [C481S]; experiment: Inhibition of BTK C481S mutant (unknown origin)
OCI-Ly10 [12] = experiment: Antitumor activity against human OCILY10 cells xenografted in SCID mouse assessed as tumor growth inhibition at 30 mg/kg, po bid measured after 17 days relative to control; format: functional; set-up: scale not given: the % may be the effect or the level left; conditions: time 17 day
HEK293 [13] = experiment: Induction of BTK T316 mutant degradation in human HEK293 cells incubated for 24 hrs by Western blot analysis; format: cell-based; conditions: dose 1-1000 nM, DDE = dose-dependent effect
[14] = Cmax in ICR mouse at 100 mg/kg, po measured upto 48 hrs by LC/MS analysis; format: ADME, organism-based; set-up: dose 100 mg/kg, time < 48 hrs, route po; conditions: in vivo
JeKo-1 [15] = experiment: cells; conditions: Homo sapiens
[16] = Half life in ICR mouse at 100 mg/kg, po measured upto 48 hrs by LC/MS analysis; format: ADME, organism-based; conditions: in vivo
[17] = Tmax in ICR mouse at 100 mg/kg, po measured upto 48 hrs by LC/MS analysis; format: ADME, organism-based; conditions: in vivo
[18] = molecular target: Tyrosine-protein kinase BTK (Mus musculus) (UniProt P35991); experiment: In vivo induction of BTK degradation in ICR mouse monocytes assessed as protein remaining at 100 mg/kg, po after 24 hrs by Western blot analysis relative to control; format: functional, organism-based; conditions: Monocyte
[19] = Tmax in Sprague-Dawley rat at 5 to 10 mg/kg, po administered as cassette dose measured upto 24 hrs by LC-MS analysis; format: ADME, organism-based; conditions: in vivo, dose 5-10 mg/kg
[20] = Half life in Sprague-Dawley rat at 5 to 10 mg/kg, po administered as cassette dose measured upto 24 hrs by LC-MS analysis; format: ADME, organism-based; conditions: in vivo, dose 5-10 mg/kg
[21] = molecular target: T1, Tyrosine-protein kinase BTK; experiment: Induction of BTK degradation in human MINO cells at 100 nM measured after 8 hrs by proteomic analysis; format: cell-based
[22] = AUC (0 to t) in Sprague-Dawley rat at 5 to 10 mg/kg, po administered as cassette dose measured upto 24 hrs by LC-MS analysis; format: ADME, organism-based; set-up: time < 24 hrs, route po; conditions: in vivo, dose 5-10 mg/kg
[23] = molecular target: T1, Tyrosine-protein kinase BTK; experiment: Induction of BTK degradation in human MINO cells at 0.1 to 1000 nM incubated for 8 hrs by Western blot analysis relative to control; format: cell-based; conditions: dose 0.1-1000 nM
[24] = molecular target: Tyrosine-protein kinase BTK (Mus musculus) (UniProt P35991); experiment: In vivo induction of BTK degradation in ICR mouse monocytes assessed as protein remaining at 100 mg/kg, po after 6 hrs by Western blot analysis relative to control; format: functional, organism-based
[25] = Toxicity in SCID mouse xenografted with OCILY10 cells assessed as effect on body weight at 10 to 30 mg/kg, po bid measured after 17 days; format: organism-based; conditions: in vivo, 408 h, dose 10-30 mg/kg, time 17 day
[26] = molecular target: T1, Tyrosine-protein kinase BTK; experiment: Induction of BTK degradation in human MINO cells assessed as reduction in PLCgamma-2 phosphorylation incubated for 24 hrs by Western blot analysis; format: cell-based; conditions: dose 1-200 nM, DDE = dose-dependent effect
[27] = AUC (0 to infinity) in ICR mouse at 100 mg/kg, po measured upto 48 hrs by LC/MS analysis; format: ADME, organism-based; set-up: time < 48 hrs, dose 100 mg/kg, route po; conditions: in vivo
[28] = AUC (0 to t) in ICR mouse at 100 mg/kg, po measured upto 48 hrs by LC/MS analysis; format: ADME, organism-based; set-up: time < 48 hrs, dose 100 mg/kg, route po; conditions: in vivo
[29] = Cmax in Sprague-Dawley rat at 5 to 10 mg/kg, po administered as cassette dose measured upto 24 hrs by LC-MS analysis; format: ADME, organism-based; set-up: time < 24 hrs, route po; conditions: in vivo, dose 5-10 mg/kg
HEK293 [30] = experiment: Induction of BTK C481 mutant degradation in human HEK293 cells incubated for 24 hrs by Western blot analysis; format: cell-based; conditions: dose 1-1000 nM, DDE = dose-dependent effect
JeKo-1 [31] = experiment: cells; conditions: Homo sapiens; remark: listed apart in the source
[32] = MRT in ICR mouse at 2 mg/kg, iv measured upto 48 hrs by LC/MS analysis; format: ADME, organism-based; conditions: in vivo
TMD8 = experiment: cells; conditions: Homo sapiens
[33] = Clearance in ICR mouse at 2 mg/kg, iv measured upto 48 hrs by LC/MS analysis; format: ADME, organism-based; conditions: in vivo
[34] = molecular target: T1, Tyrosine-protein kinase BTK; experiment: Induction of BTK degradation in human MINO cells incubated for 24 hrs by Western blot based densitometry analysis; format: cell-based
OCI-Ly10 [35] = experiment: cells; conditions: Homo sapiens
[36] = Volume of distribution at steady state in ICR mouse at 2 mg/kg, iv measured upto 48 hrs by LC/MS analysis; format: ADME, organism-based; conditions: in vivo, read-out: Vdss
OCI-Ly10 [37] = experiment: Antitumor activity against human OCILY10 cells xenografted in SCID mouse assessed as tumor growth inhibition at 10 mg/kg, po bid measured after 17 days relative to control; format: functional; set-up: scale not given: the % may be the effect or the level left; conditions: time 17 day
[38] = AUC (0 to infinity) in ICR mouse at 20 mg/kg, po administered as single dose measured upto 48 hrs by LC-MS analysis; format: ADME, organism-based; set-up: dose 20 mg/kg, time < 48 hrs, route po; conditions: in vivo
[39] = Cmax in ICR mouse at 20 mg/kg, po administered as single dose measured upto 48 hrs by LC-MS analysis; format: ADME, organism-based; set-up: dose 20 mg/kg, time < 48 hrs, route po; conditions: in vivo
[40] = molecular target: Tyrosine-protein kinase BTK (Mus musculus) (UniProt P35991); experiment: In vivo induction of BTK degradation in ICR mouse monocytes at 20 mg/kg, po after 8 hrs by Western blot analysis relative to control; format: functional, organism-based; conditions: Monocyte
[41] = Half life in ICR mouse at 20 mg/kg, po administered as single dose measured upto 48 hrs by LC-MS analysis; format: ADME, organism-based; conditions: in vivo
cells = conditions: Homo sapiens, MINO
[42] = Dose normalized AUC (0 to t) in Sprague-Dawley rat at 10 mg/kg, po administered as cassette dose measured upto 24 hrs by LC-MS analysis; format: ADME, organism-based; conditions: in vivo
[43] = molecular target: T1, Tyrosine-protein kinase BTK; experiment: Induction of BTK degradation in human MINO cells incubated for 24 hrs by Western blot analysis; format: cell-based; conditions: dose 1-1000 nM, DDE = dose-dependent effect
[44] = AUC (0 to t) in ICR mouse at 20 mg/kg, po administered as single dose measured upto 48 hrs by LC-MS analysis; format: ADME, organism-based; set-up: dose 20 mg/kg, time < 48 hrs, route po; conditions: in vivo
[45] = Tmax in ICR mouse at 20 mg/kg, po administered as single dose measured upto 48 hrs by LC-MS analysis; format: ADME, organism-based; conditions: in vivo
[46] = Half life in Sprague-Dawley rat at 10 mg/kg, po administered as cassette dose measured upto 24 hrs by LC-MS analysis; format: ADME, organism-based; conditions: in vivo
[47] = AUC (0 to t) in Sprague-Dawley rat at 10 mg/kg, po administered as cassette dose measured upto 24 hrs by LC-MS analysis; format: ADME, organism-based; set-up: dose 10 mg/kg, time < 24 hrs, route po; conditions: in vivo
[48] = Tmax in Sprague-Dawley rat at 10 mg/kg, po administered as cassette dose measured upto 24 hrs by LC-MS analysis; format: ADME, organism-based; conditions: in vivo
MM1.S = experiment: cells; conditions: Homo sapiens
[49] = Cmax in Sprague-Dawley rat at 10 mg/kg, po administered as cassette dose measured upto 24 hrs by LC-MS analysis; format: ADME, organism-based; set-up: time < 24 hrs, dose 10 mg/kg, route po; conditions: in vivo

T1 sequence (Q06187 whole entry): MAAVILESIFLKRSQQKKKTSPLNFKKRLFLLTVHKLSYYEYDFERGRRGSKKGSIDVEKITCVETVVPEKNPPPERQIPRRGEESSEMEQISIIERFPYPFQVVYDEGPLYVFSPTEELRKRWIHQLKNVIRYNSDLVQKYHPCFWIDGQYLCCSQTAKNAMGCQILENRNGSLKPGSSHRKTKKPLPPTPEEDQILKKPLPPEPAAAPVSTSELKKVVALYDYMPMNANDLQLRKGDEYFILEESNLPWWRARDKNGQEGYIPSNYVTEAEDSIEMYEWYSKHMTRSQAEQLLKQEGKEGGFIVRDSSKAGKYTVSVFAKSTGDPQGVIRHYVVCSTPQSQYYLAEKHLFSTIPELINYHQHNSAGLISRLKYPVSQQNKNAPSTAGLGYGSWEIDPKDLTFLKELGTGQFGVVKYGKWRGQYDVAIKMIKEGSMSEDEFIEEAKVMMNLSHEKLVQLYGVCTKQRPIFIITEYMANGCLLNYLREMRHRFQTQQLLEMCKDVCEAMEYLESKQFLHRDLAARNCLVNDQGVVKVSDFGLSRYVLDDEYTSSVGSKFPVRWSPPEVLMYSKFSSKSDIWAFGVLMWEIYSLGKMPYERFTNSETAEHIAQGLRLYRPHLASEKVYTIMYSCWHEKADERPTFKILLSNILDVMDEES
Chain of Tyrosine-protein kinase BTK (Mus musculus) (P35991 whole entry): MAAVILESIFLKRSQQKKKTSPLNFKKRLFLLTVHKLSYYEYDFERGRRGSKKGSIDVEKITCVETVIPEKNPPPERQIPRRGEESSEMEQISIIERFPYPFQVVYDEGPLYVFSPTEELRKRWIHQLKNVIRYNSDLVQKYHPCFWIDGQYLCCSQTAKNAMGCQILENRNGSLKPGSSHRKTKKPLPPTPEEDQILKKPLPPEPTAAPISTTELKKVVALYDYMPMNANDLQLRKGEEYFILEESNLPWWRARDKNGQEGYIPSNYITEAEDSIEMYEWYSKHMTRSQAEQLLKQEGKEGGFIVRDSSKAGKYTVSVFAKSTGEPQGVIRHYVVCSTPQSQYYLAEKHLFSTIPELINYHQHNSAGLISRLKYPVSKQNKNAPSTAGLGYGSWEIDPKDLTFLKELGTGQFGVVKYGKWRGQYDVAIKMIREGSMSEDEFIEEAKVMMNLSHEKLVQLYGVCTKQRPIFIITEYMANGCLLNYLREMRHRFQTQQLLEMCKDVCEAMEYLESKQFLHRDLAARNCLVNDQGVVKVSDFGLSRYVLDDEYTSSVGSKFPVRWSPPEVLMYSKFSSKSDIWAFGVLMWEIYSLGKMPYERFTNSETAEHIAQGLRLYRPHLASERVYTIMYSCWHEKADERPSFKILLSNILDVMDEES
Chain of Proto-oncogene tyrosine-protein kinase Src (Homo sapiens) (P12931 2-536 limits assumed): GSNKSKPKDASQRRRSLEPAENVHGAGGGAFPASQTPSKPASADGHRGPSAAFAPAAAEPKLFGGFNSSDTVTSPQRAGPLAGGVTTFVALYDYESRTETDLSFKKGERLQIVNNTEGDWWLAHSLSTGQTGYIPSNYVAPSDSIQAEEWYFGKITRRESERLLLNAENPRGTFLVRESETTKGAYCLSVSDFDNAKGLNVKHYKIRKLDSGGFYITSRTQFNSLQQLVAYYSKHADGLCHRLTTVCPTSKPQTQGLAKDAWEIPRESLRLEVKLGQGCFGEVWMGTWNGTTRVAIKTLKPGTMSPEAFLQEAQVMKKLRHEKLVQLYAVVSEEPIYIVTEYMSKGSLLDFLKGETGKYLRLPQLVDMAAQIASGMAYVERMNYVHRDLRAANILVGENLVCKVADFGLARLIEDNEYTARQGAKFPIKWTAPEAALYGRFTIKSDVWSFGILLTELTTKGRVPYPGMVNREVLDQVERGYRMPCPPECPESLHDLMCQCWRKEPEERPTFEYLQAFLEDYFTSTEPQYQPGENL
Chain of Tyrosine-protein kinase BTK (Homo sapiens), Q06187 [C481S] (Q06187 whole entry C481S): as the sequence (Q06187 whole entry) above, with C481S counted along it

## Nc1ncnc2c1c(-c1ccc(Oc3ccccc3)cc1)nn2[C@@H]1CCCN(C(=O)CCCC(=O)NCC#CCN2CCN(CC#Cc3ccc4c(c3)CN(C3CCC(=O)NC3=O)C4=O)CC2)C1 (some centres undefined)
[1]
  Activity: Dde
[2]
  Activity: > 50%
[3]
  IC50: 9 nM

## Nc1ncnc2c1c(-c1ccc(Oc3ccccc3)cc1)nn2C1CCN(C2CCN(CC#Cc3ccc4c(c3)CN(C3CCC(=O)NC3=O)C4=O)CC2)CC1 (centres undefined)
[4]
  Activity: Active
[5]
  Activity: Active
[6]
  AUCt/dose: 8 ng·h/mL/mg
[7]
  Activity: Active
[8]
  bioavailability: 12%
[9]
  Activity: Dde
[10]
  Emax: 96%
[11]
  inhibition: Active
OCI-Ly10 [12]
  Activity: 96.9%
HEK293 [13]
  Activity: Dde
[14]
  Cmax: 3090 ng/mL
JeKo-1 [15]
  IC50: 105 nM
[16]
  half-life: 60 min
[17]
  Tmax: 8.3 h
[18]
  Activity: 24%
[19]
  Tmax: 42 min
[20]
  half-life: 762 min
[1]
  Activity: Dde
[21]
  Activity: Active
[22]
  AUC(0-t) at 24 h: 83 ng·h/mL
[23]
  Activity: 91%
[24]
  Activity: Active
[25]
  Activity: Non-Toxic
[26]
  Activity: Dde
[27]
  AUC(0-inf): 17100 ng·h/mL
[28]
  AUC(0-t) at 48 h: 16900 ng·h/mL
[29]
  Cmax: 16 ng/mL
HEK293 [30]
  Activity: Dde
JeKo-1 [31]
  IC50: 0.708 µM
[32]
  MRT: 4.5 h
TMD8
  IC50: 4.7 nM
[33]
  clearance: 11.8 mL/min/kg
[34]
  DC50: 5.8 nM
OCI-Ly10 [35]
  IC50: 5.9 nM
[3]
  IC50: 9 nM
[36]
  Vd: 3.1 L/kg
OCI-Ly10 [37]
  Activity: 50.9%

## Nc1ncnc2c1c(-c1ccc(Oc3ccccc3)cc1)nn2[C@@H]1CCCN(C(=O)CCC(=O)N2CCN(CC#Cc3ccc4c(c3)CN(C3CCC(=O)NC3=O)C4=O)CC2)C1 (some centres undefined)
[38]
  AUC(0-inf): 404 ng·h/mL
[39]
  Cmax: 224 ng/mL
[40]
  Activity: 37.2%
[41]
  half-life: 156 min
cells
  IC50: 123 nM
JeKo-1 [15]
  IC50: 825 nM
[42]
  AUCt/dose: 29 ng·h/mL/mg
[43]
  Activity: Dde
[44]
  AUC(0-t) at 48 h: 374 ng·h/mL
[45]
  Tmax: 30 min
[46]
  half-life: 390 min
JeKo-1 [31]
  IC50: 11.6 µM
[47]
  AUC(0-t) at 24 h: 288 ng·h/mL
[48]
  Tmax: 42 min
MM1.S
  IC50: 1920 nM
TMD8
  IC50: 16.3 nM
[49]
  Cmax: 84 ng/mL
OCI-Ly10 [35]
  IC50: 12.9 nM
[3]
  IC50: 6.3 nM
